Where two headings read alike, the source gives them in different places. A value given as a limit tells only on which side of the number the result lay.

This passage reports Kd results from paper PMC7642680, “The Nontypeable Haemophilus influenzae Major Adhesin Hia Is a Dual-Function Lectin That Binds to Human-Specific Respiratory Tract Sialic Acid Glycan Receptors” (mBio, 2020).

The target in assay [1] is T1, Hia (full-length, expressed on E. coli BL21) (Haemophilus influenzae, UniProt Q8GM79).
T1 construct: trimeric autotransporter
Briefly: SPR, Hia-expressing BL21 cells immobilised (Biacore C1 chip). Type of assay: cell-based. Particulars: 1x PBS pH 7.4; single-cycle kinetics; whole cells.

Assay [2] has as its target Hia (full-length, expressed on E. coli BL21) (Haemophilus influenzae, UniProt Q8GM79, D618K). Particulars: 1x PBS pH 7.4, whole cells. The text has this:
(§1) SPR, Hia-expressing BL21 cells immobilised (Biacore C1 chip) on Hia (full-length, expressed on E. coli BL21)

Assay [3] has as its target T2, Hia (full-length, expressed on E. coli BL21) (Haemophilus influenzae, UniProt Q8GM79, A619R). Particulars: read-out: 2-3 SLN-Ac; 1x PBS pH 7.4; whole cells.
Source text: as §1

The target of assay [4] is Hia BD1 (binding domain 1) (Haemophilus influenzae, UniProt Q8GM79). Nature of the assay: SPR, purified BD1 immobilised (Biacore CM5 amine capture). The conditions noted are these: 1x PBS pH 7.4; single-cycle kinetics. (In general: Surface plasmon resonance follows binding to a sensor surface in real time, without labels.)
In assay [5] the target is T2, Hia (full-length, expressed on E. coli BL21). The conditions noted are these: read-out: NB, OneStep injection at 10 μM, whole cells. The source says:
SPR, OneStep injection, Hia-expressing BL21 cells on Hia (full-length, expressed on E. coli BL21)

In turn, `CC(=O)N[C@H]1[C@H](O[C@H]2[C@@H](O)[C@@H](CO)O[C@@H](O[C@H]3[C@H](O)[C@@H](O)C(O)O[C@@H]3CO)[C@@H]2O)O[C@H](CO)[C@@H](O[C@@H]2O[C@H](CO)[C@H](O)[C@H](O[C@@]3(C(=O)O)C[C@H](O)[C@@H](NC(C)=O)[C@H]([C@H](O)[C@H](O)CO)O3)[C@H]2O)[C@@H]1O` (stereo partly shown) [2-3 Ac-SLNnT] displayed a Kd in assay [1] of 2.03 ± 1.49 µM.

Turning to `CC(=O)N[C@H]1[C@H](O[C@H]2[C@@H](O)[C@@H](CO)O[C@@H](O[C@H]3[C@H](O)[C@@H](O)C(O)O[C@@H]3CO)[C@@H]2O)O[C@H](CO)[C@@H](O[C@@H]2O[C@H](CO)[C@H](O)[C@H](O[C@@]3(C(=O)O)C[C@H](O)[C@@H](NC(=O)CO)[C@H]([C@H](O)[C@H](O)CO)O3)[C@H]2O)[C@@H]1O` (stereo partly shown) [2-3 Gc-SLNnT], the Kd in assay [1] amounted to 5.44 ± 1.11 µM.

Regarding `CC(=O)N[C@H]1[C@H]([C@H](O)[C@H](O)CO)O[C@@](O[C@H]2[C@@H](O)[C@@H](CO)O[C@@H](O[C@H]3[C@H](O)[C@@H](NC(C)=O)C(O)O[C@@H]3CO)[C@@H]2O)(C(=O)O)C[C@@H]1O` (stereo partly shown) [2-3 SLN-Ac], the Kd in assay [2] (read-out: 2-3 SLN-Ac) came out at 0.842 ± 0.178 µM; in assay [3] it was 3.04 ± 0.7 µM; in assay [1], 2.03 ± 0.443 µM.

With `CC(=O)N[C@H]1C(O)O[C@H](CO)[C@@H](O[C@@H]2O[C@H](CO)[C@H](O)[C@H](O[C@@]3(C(=O)O)C[C@H](O)[C@@H](NC(=O)CO)[C@H]([C@H](O)[C@H](O)CO)O3)[C@H]2O)[C@@H]1O` (stereo partly shown) [2-3 SLN-Gc], in assay [1], the Kd was 10.1 ± 0.32 µM.

Regarding `CC(=O)N[C@H]1[C@H]([C@H](O)[C@H](O)CO)O[C@](OC[C@H]2O[C@@H](O[C@H]3[C@H](O)[C@@H](NC(C)=O)C(O)O[C@@H]3CO)[C@H](O)[C@@H](O)[C@H]2O)(C(=O)O)C[C@@H]1O` (stereo partly shown) [2-6 SLN-Ac], the Kd was 0.021 ± 0.001 µM in assay [2] (read-out: 2-6 SLN-Ac), 0.185 ± 0.0599 µM in assay [1], 0.0649 ± 0.0056 µM in assay [4] and over 10 µM in assay [5].
